Results published in PubChem BioAssay (NCI).
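48-hour exposure; five concentrations; linearly interpolated endpoints. The concentration for 50% growth inhibition is given as GI50. TGI: concentration producing complete growth inhibition.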 Where a SMILES comes first, the peptide text is derived from it. [ ]: non-standard residue; d: D form. The star is where a group is joined. ξ: configuration not given here. ξF = NC(Cc1ccccc1)C(=O)O; Cbz = O=C(OCc1ccccc1)*; Aib = CC(C)(N)C(=O)O

What was measured:
Experiment in all cases: NCI tumour cell line growth inhibition, 48 h
BT-549 breast = system: BT-549 breast
HCT-116 colon = system: HCT-116 colon
NCI-H23 lung = system: NCI-H23 lung
OVCAR-3 ovarian = system: OVCAR-3 ovarian
OVCAR-4 ovarian = system: OVCAR-4 ovarian
SK-MEL-5 melanoma = system: SK-MEL-5 melanoma
SR leukemia = system: SR leukemia
UACC-257 melanoma = system: UACC-257 melanoma
MOLT-4 leukemia = system: MOLT-4 leukemia
NCI-H522 lung = system: NCI-H522 lung

| SMILES | TGI (BT-549 breast) [µM] | TGI (HCT-116 colon) [µM] | TGI (NCI-H23 lung) [µM] | TGI (OVCAR-3 ovarian) [µM] | TGI (OVCAR-4 ovarian) [µM] | TGI (SK-MEL-5 melanoma) [µM] | TGI (SR leukemia) [µM] | TGI (UACC-257 melanoma) [µM] | TGI (MOLT-4 leukemia) [µM] | TGI (NCI-H522 lung) [µM] | GI50 (BT-549 breast) [µM] | GI50 (MOLT-4 leukemia) [µM] | GI50 (NCI-H23 lung) [µM] | GI50 (OVCAR-3 ovarian) [µM] | GI50 (OVCAR-4 ovarian) [µM] | GI50 (SK-MEL-5 melanoma) [µM] | GI50 (UACC-257 melanoma) [µM] | GI50 (HCT-116 colon) [µM] | GI50 (SR leukemia) [µM] |
| --- | --- | --- | --- | --- | --- | --- | --- | --- | --- | --- | --- | --- | --- | --- | --- | --- | --- | --- | --- |
| Oc1ccc(Cl)cc1C1=N/C(=N\CN2CCN(C/N=C3/N=C(c4cc(Cl)ccc4O)CC(c4ccccc4)N3)CC2)NC(c2ccccc2)C1 (centres undefined) | > 100 | 46.3 | > 100 | 55.4 | 78 | > 100 | > 100 | > 100 |  |  |  |  |  |  |  |  |  |  |  |
| CCN1CC(C)Cn2c(=O)[nH]c3cc(Br)cc1c32 (centres undefined) | 56.8 | > 100 | > 100 | 77.5 | > 100 | > 100 |  | > 100 | 81.9 |  |  |  |  |  |  |  |  |  |  |
| O=C(Nc1ccccc1)O/N=C(/CBr)c1ccccc1 |  | 20 | 26.2 | 37.9 | 33.8 | 28.1 | 44.2 | 35.5 | > 100 | 29.3 |  |  |  |  |  |  |  |  |  |
| CC(=O)NCCCCNCCCNC(C)=O | > 100 | > 100 | > 100 |  | > 100 | > 100 |  | > 100 | > 100 | > 100 |  |  |  |  |  |  |  |  |  |
| Cc1ccc(S(=O)(=O)N/C(=C\C=C\c2ccccc2)C(=O)C(C)(C)C)cc1 |  | > 100 | > 100 | > 100 | > 100 | > 100 | > 100 | > 100 | > 100 | > 100 |  |  |  |  |  |  |  |  |  |
| O=C(NCCN(CCNC(=O)c1cccc(=O)n1O)CCN(CCNC(=O)c1cccc(=O)n1O)CCNC(=O)c1cccc(=O)n1O)c1cccc(=O)n1O | > 100 | > 100 | > 100 | > 100 | > 100 | > 100 |  | > 100 |  | > 100 |  |  |  |  |  |  |  |  |  |
| CN(C)c1ccc(/C=N/Nc2nc3ccccc3c(=O)n2-c2ccccc2)cc1 |  | > 100 | > 100 | > 100 | 70.2 | > 100 | > 100 | > 100 | > 100 | > 100 |  |  |  |  |  |  |  |  |  |
| CC(C)(C)OC(=O)n1cc(C2CNC(=O)C23CCC(=O)N3Cc2ccccc2)c2ccccc21 (centres undefined) |  | > 100 | 57.1 | 46.8 | 36.2 | 31.9 | > 100 | 65.2 | > 100 | 35 |  |  |  |  |  |  |  |  |  |
| CSc1c(C(=O)Nc2ccccc2)c(N)nn1-c1ccccc1 | > 100 | > 100 | > 100 | > 100 | > 100 | > 100 | > 100 | > 100 | > 100 |  |  |  |  |  |  |  |  |  |  |
| Cc1ccc(C(=O)OC[C@H]2CC[C@@H](n3cc(N(C)C4CCCCC4)c(=O)[nH]c3=O)O2)cc1 |  | 32.4 | > 100 | 54.4 | 68.4 | 40.1 | > 100 | 98.5 | > 100 | 46.6 |  |  |  |  |  |  |  |  |  |
| CCC1C(=O)C[C@H]2[C@@H]3C(O)CC4=CC(=O)CC[C@]4(C)[C@H]3CC[C@]12C (some centres undefined) |  | > 50 | > 50 | > 50 | > 50 | > 50 |  | > 50 | > 50 | > 50 |  |  |  |  |  |  |  |  |  |
| CCC(C)[C@H](NC(=O)N[C@H](C)c1ccccc1)C(=O)OC (some centres undefined) | > 100 | > 100 | > 100 | > 100 | > 100 | > 100 | > 100 | > 100 | > 100 |  |  |  |  |  |  |  |  |  |  |
| CCC(CCCN)Nc1cc(OC)cc2cccnc12 (centres undefined) | > 100 | > 100 |  | > 100 | > 100 | > 100 | > 100 | 62.8 |  |  |  |  |  |  |  |  |  |  |  |
| COc1cc(OC)c2c(O)cc(CC(C)O)cc2c1 (centres undefined) |  | > 100 | > 100 | > 100 | > 100 | > 100 | > 100 | > 100 | > 100 | > 100 |  |  |  |  |  |  |  |  |  |
| O=C(CSc1nc2ccccc2[nH]1)Nc1ccc(-c2nc3ccccc3s2)c(Cl)c1 | > 100 |  | 4.27 | 4.55 | > 100 | > 100 |  | > 100 | > 100 |  | 7.69 | > 100 | 1.88 | 2.17 | 2.56 | 3.12 | 4.08 |  |  |
| CN(C)C(=S)N/N=C\C=N/NC(=S)N(C)C | > 100 | > 100 | > 58.8 | > 100 | > 100 | > 100 |  | > 100 |  | > 85.3 |  |  |  |  |  |  |  |  |  |
| O=C(c1ccc(Cl)cc1)c1ccc(OCC(=O)N2CCN(c3ccccc3)CC2)cc1 |  | > 100 | > 100 | > 100 | > 100 | > 100 | > 100 | > 100 | > 100 |  |  |  |  |  |  |  |  |  |  |

| SMILES | TGI (BT-549 breast) [µM] | TGI (HCT-116 colon) [µM] | TGI (NCI-H23 lung) [µM] | TGI (OVCAR-3 ovarian) [µM] | TGI (OVCAR-4 ovarian) [µM] | TGI (SK-MEL-5 melanoma) [µM] | TGI (SR leukemia) [µM] | TGI (UACC-257 melanoma) [µM] | TGI (MOLT-4 leukemia) [µM] | TGI (NCI-H522 lung) [µM] | GI50 (BT-549 breast) [µM] | GI50 (MOLT-4 leukemia) [µM] | GI50 (NCI-H23 lung) [µM] | GI50 (OVCAR-3 ovarian) [µM] | GI50 (OVCAR-4 ovarian) [µM] | GI50 (SK-MEL-5 melanoma) [µM] | GI50 (UACC-257 melanoma) [µM] | GI50 (HCT-116 colon) [µM] | GI50 (SR leukemia) [µM] |
| --- | --- | --- | --- | --- | --- | --- | --- | --- | --- | --- | --- | --- | --- | --- | --- | --- | --- | --- | --- |
| Cc1cn(C2CC(n3cc(Cn4cc(F)c(=O)[nH]c4=O)nn3)C(CO)O2)c(=O)[nH]c1=O (centres undefined) | > 100 | > 100 | > 100 | > 100 | > 100 | > 100 |  | > 100 | > 100 |  |  |  |  |  |  |  |  |  |  |
| CC1(C)OC2OC(COC(=O)C=[N+]=[N-])C3OC(C)(C)OC3C2O1 (centres undefined) | > 100 | > 100 | > 100 | > 100 | > 100 | > 100 | > 100 | > 100 |  | > 100 |  |  |  |  |  |  |  |  |  |
| C=CC(=O)N1C/C(=C\c2ccc(N(C)C)cc2)C(=O)/C(=C/c2ccc(N(C)C)cc2)C1 | > 100 | > 100 | > 100 | > 100 | > 100 | > 100 |  | > 100 | > 100 |  |  |  |  |  |  |  |  |  |  |
| CCCCOC(=O)CNC(=O)OCCCCC#CC#CCCCCOC(=O)NCC(=O)OCCCC |  | > 100 | > 100 |  | > 100 | > 100 | > 100 | > 100 | > 100 | > 100 |  |  |  |  |  |  |  |  |  |
| COc1ccc2c(c1)O[C@@H]1C(O)Oc3cc(OC)c(OC)cc3[C@]1(O)C2=O (some centres undefined) | 91 | > 100 | > 100 | > 100 | > 100 | 72.4 |  | > 100 | > 100 | 36.5 |  |  |  |  |  |  |  |  |  |
| Cc1ccc(F)cc1NC(=O)O/N=C(\Cl)C(C)C |  | 35.3 | > 56.9 | 13.9 | 33.1 | 24.1 |  | 46.7 | 4.83 | 2.13 |  |  |  |  |  |  |  |  |  |
| C=CCC(C)C12CCNC(Cc3ccc(O)cc31)C2C (centres undefined) |  | > 100 | > 100 |  | > 100 | > 100 | > 100 | > 100 | > 100 |  |  |  |  |  |  |  |  |  |  |
| N#CC1=C2Sc3ccccc3N2[C@H](c2ccccc2)[C@H]2COC(=O)[C@@H]12 | 70.6 | > 100 | > 100 | > 100 | > 100 | > 100 |  | > 100 | > 100 | 27 |  |  |  |  |  |  |  |  |  |
| Cc1ccc(C)n2c1nc1ccc3ccccc3c12 | > 100 |  | > 100 | > 100 |  | > 100 | > 100 | > 100 | > 100 |  |  |  |  |  |  |  |  |  |  |
| CC(C)C[C@H](NC(=O)[C@H](Cc1cccc2ccccc12)NC(=O)N1CCOCC1)B(O)O |  | 0.00182 | 0.0076 | 0.00171 | > 100 | 0.00237 | 0.013 | 0.00495 |  |  | 0.00039 | 0.000339 | 0.00188 | 0.000519 |  |  | 0.00172 | 0.000452 | 0.00276 |
| COC(=O)C12Oc3ccc(-c4ccc5c(c4O)C(=O)C4=CCC(C)C(O)C4(C(=O)OC)O5)c(O)c3C(=O)C1=CCC(C)C2O (centres undefined) |  | 2.15 | 2.83 | 2.9 | 6.1 | 3.13 | > 100 | 4.95 | > 23 | 2.45 |  |  |  |  |  |  |  |  |  |
| COc1ccc(N[C@H](CS(=O)c2ccc(C)cc2)c2ccc(F)cc2)cc1 (some centres undefined) | > 100 | > 100 | > 100 | > 100 | > 100 | > 100 |  | > 100 | > 100 | > 100 |  |  |  |  |  |  |  |  |  |
| CCCCCc1cc(OC(=O)c2c(O)cc(OC)cc2CCCCC)cc(O)c1C(=O)O |  |  | 27.1 |  | 41.3 | 28.5 |  |  | 60 | 28.2 |  |  |  |  |  |  |  |  |  |
| c1ccc2c(-c3cnc(-c4c[nH]c5ccccc45)cn3)c[nH]c2c1 | > 100 | 94.2 | > 100 | > 100 | > 100 | > 100 | > 100 | > 100 |  | 64.2 |  |  |  |  |  |  |  |  |  |
| CC(=O)c1ccc(N=Nc2ccc3nonc3c2N)cc1 |  | > 100 | > 100 | > 100 | > 100 | > 100 | > 100 | > 100 | > 100 |  |  |  |  |  |  |  |  |  |  |
| CC(C)(NC(=O)OCc1ccccc1)C(=O)NC(Cc1ccccc1)C(=O)O (centres undefined) (Cbz-[Aib]-[ξF]-OH) | > 100 | > 100 | > 100 | > 100 | > 100 | > 100 |  | > 100 | > 100 | > 100 |  |  |  |  |  |  |  |  |  |
| COC(=O)CCCc1ccc2c(c1)CC1(C2)Cc2cc3c(cc2C1)CCCC3 |  | 15.9 | > 100 | > 100 | > 100 | 41.2 | 0.713 | > 100 | 38.9 | 84 |  |  |  |  |  |  |  |  |  |
